# Test results taken from patent US20250367283A1, “MEVALONATE PATHWAY INHIBITOR AS HIGHLY-EFFICIENT VACCINE ADJUVANT” (Tsinghua University, priority 2015, published 2025).
# Read-outs that look alike come from different tables or passages of the source.
# Experiments:
# [1] = test system: anti-OVA IgM and IgG antibodies; assay: Combined adjuvant effect of FPPS inhibitor and TLR agonist, OVA titer; type: in vivo, mice; settings: soles of right feet
# Description: Two compounds, TH-Z93 and Imiquimod, were formulated at a concentration of 4 mg/ml, and OVA antigen at a concentration of 10 mg/ml. When used alone, 5 μl of TH-Z93 or imiquimod was added as an adjuvant and mixed with 10 μl of antigen and 5 μl of PBS. When two adjuvants were used in combination, each of the adjuvants were added in an amount of 5 μl and mixed with 10 μl of antigen, and the total volumes were 20 μl. The mice used are of C57B/6 strain. An equal volume of PBS without any adjuvant was used for mice in the control group. The mice was injected at the soles of the right feet. On Day 7 and Day 14 after immunization, blood was taken from the mice's orbits, and 100 μl was taken for each mouse. The obtained blood was left at 4° C. overnight, and then the serum was separated. The titers of anti-OVA IgM and IgG antibodies in the serum were determined.
# [2] = biological target: HsGGPPS (humanized geranylgeranyl pyrophosphate synthase) (Homo sapiens (Human), UniProt O95749); assay: HsGGPPS enzyme inhibition test; type: biochemical
# Sequence of HsGGPPS (humanized geranylgeranyl pyrophosphate synthase) (O95749 whole entry, looked up): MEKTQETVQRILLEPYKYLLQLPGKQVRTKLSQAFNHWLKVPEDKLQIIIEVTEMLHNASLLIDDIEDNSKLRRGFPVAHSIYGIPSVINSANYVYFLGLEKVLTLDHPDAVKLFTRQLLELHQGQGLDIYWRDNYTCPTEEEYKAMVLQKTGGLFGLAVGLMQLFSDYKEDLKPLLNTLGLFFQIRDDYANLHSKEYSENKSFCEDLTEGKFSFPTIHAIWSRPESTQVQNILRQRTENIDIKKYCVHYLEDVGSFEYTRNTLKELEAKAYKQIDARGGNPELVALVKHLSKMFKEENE
# Description: The inhibitory activities of compounds TH-Z144 and TH-Z145 on GGPPS (geranylgeranyl pyrophosphate synthase) were tested by referring to the expression and purification method for HsGGPPS (humanized geranylgeranyl pyrophosphate synthase) in the reference (Szabo, C. M., et al., Inhibition of Geranylgeranyl Diphosphate Synthase by Bisphosphonates and Diphosphates: A Potential Route to New Bone Antiresorption and Antiparasitic Agents. Journal of Medicinal Chemistry, 2002. 45 (11): p. 2185-2196.) and the method for testing enzyme activity in the reference (Zhang, Y., et al., Lipophilic Bisphosphonates as Dual Farnesyl/Geranylgeranyl Diphosphate Synthase Inhibitors: An X-ray and NMR Investigation. Journal of the American Chemical Society, 2009. 131 (14): p. 5153-5162.) The data of the activity test were as follows: […]
# [3] = test system: anti-OVA IgM and IgG antibodies; assay: OVA evaluation system: adjuvant activity in antibody titer in mice; type: in vivo; settings: GGPPS inhibitors 100 μg with OVA, right sole, Day 7 and Day 14
# Description: OVA evaluation system was used to determine adjuvant activity in antibody titer.
# Mice of C57B/6 strain were used. The mice in the experimental group were injected with the obtained mixture of each of the statins and OVA antigen through soles injection, with 20 μl for each mouse. The mice in the control group were injected with a 1:1 mixture of PBS or DMSO (10 μl) and 10 μl OVA antigen (PBS or DMSO is 10 μl, respectively, and the antigen is 10 μl) through soles injection, with 20 μl for each mouse. On Day 7 and Day 14 after immunization, blood was taken from the mice's orbits, with 100 μl was taken from each mouse. The obtained blood was left at 4° C. overnight, and centrifuged at 6000 rpm for 8 min. The supernatant serum was removed and the titers of anti-OVA IgM and IgG antibodies in the serum were determined.
# Test of the OVA antibody titer: The OVA protein was diluted to a concentration of 2 μg/ml with a carbonate solution of pH 9.6, coated in a 96-well ELISA plate at 50 μl per well, and left at 4° C. overnight. The ELISA plate was washed five times with PBS containing 0.05% Tween 20, blocked with 1% BSA solution at 200 μl per well, and incubated at room temperature for 2 h. The ELISA plate was washed five times with PBST (Phosphate Buffered Saline with Tween), a 2-fold serial dilution of the mouse serum after immunized with OVA was added at 50 μl per well and incubated at room temperature for 2 h. After the ELISA plate was washed five times with PBST, HRP (horseradish peroxidase)-labeled goat-anti-mouse IgM or IgG antibody was added and incubated at room temperature for 45 min. The ELISA plate was washed five times with PBST, and a color developing solution of sodium citrate OPD (o-phenylenediamine) was added. After 10 min of color development in the dark, sulfuric acid was added to terminate the reaction. The reading was performed with ELIASA OD490. The maximum serum dilution factor, when the ratio of light absorptions of the experimental group to the control group was >2.0, was the titer of the anti-OVA antibody in the serum.
# Each test compound was formulated at a concentration of 2 mg/ml and the concentration of OVA antigen was 2 mg/ml. Each compound was mixed with OVA at 1:1. Each C57B/6 mouse in the experimental group was injected with 100 μl of the mixture (containing 50 μl of the antigen and 50 μl of the compound) by intramuscular injection at the right thigh. On Day 7 and Day 14 after immunization, blood was taken from the mice's orbit, and 100 μl was taken for each mouse. The obtained blood was allowed to stand at 4° C. overnight, and centrifuged at 6000 rpm for 8 min. The supernatant serum was removed, and the titers of anti-OVA IgM and IgG antibodies in the serum were determined.
# Method: each of the test compounds (the 10 bisphosphonates as described above) was mixed with the OVE antigen at 1:1, and the concentrations of bisphosphonic acid and OVA were both 10 mg/ml. Mice of C57B/6 strain were used. The mice in the experimental group were injected with the mixture of each of the test compounds and OVA antigen through soles injection, with 20 μl for each mouse, and wherein the amounts of OVA antigen and each of the test compounds were both 100 ug. The mice in the control group were injected with a 1:1 mixture of […] and 10 μl OVA antigen through sole injection. On Day 7 and Day 14 after immunization, blood was taken from the mice's orbits, and 100 μl was taken from each mouse.
# The obtained blood was left at 4° C. overnight, and centrifuged at 6000 rpm for 8 min. The supernatant serum was removed, and the titers of anti-OVA IgM and IgG antibodies in the serum were determined.
# Method: TH-Z144 and TH-Z145 were prepared at the concentration of 10 mg/ml, the concentration of OVA antigen was also 10 mg/ml, and the compound and the antigen were mixed at 1:1. Mice of C57B/6 strain were used.
# [4] = biological target: humanized farnesyl pyrophosphate synthase (HsFPPS) (Homo sapiens (Human), UniProt P14324); assay: In vitro HsFPPS enzyme activity assay; type: biochemical
# Sequence of humanized farnesyl pyrophosphate synthase (HsFPPS) (P14324 whole entry, looked up): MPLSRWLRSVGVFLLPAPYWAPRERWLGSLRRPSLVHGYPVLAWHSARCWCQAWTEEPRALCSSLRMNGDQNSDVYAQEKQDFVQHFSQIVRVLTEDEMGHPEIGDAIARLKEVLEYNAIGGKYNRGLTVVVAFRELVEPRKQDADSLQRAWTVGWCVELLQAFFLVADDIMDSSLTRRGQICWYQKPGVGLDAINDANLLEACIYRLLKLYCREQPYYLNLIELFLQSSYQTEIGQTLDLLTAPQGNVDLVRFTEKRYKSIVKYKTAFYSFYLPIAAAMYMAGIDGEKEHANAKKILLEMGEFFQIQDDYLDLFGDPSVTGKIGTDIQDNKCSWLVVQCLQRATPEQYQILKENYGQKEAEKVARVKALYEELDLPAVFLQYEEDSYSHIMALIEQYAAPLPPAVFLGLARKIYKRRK
# Description: The measurement method is briefly described as follows: the expression of HsFPPS with 6 consecutive His at the N-terminus was induced in vitro, collected, and purified by Ni column. An in vitro HsFPPS enzyme activity assay was performed in a 96-well plate with 200 μl of solution per well. The buffer of the system was 25 mM HEPES, 2.5 mM MgCl2, pH 7.4. Using DMAPP and IPP as reaction substrates, the change of the UV value at a wavelength of 360 nm was monitored in real time in a phosphate lyase system. The ORIGIN 8.0 software was used to plot and fit. The IC50 values for the inhibition of FPPS by the TH-Z80 series of compounds were shown in the following table, in micromoles per liter (μM).
# (§1) HsFPPs with 6 consecutive His at the N-terminus was induced to express in vitro, collected, and purified by Ni column. In vitro HsFPPs enzymatic activity assay was performed in a 96-well plate at 200 μl of solution per well. The buffer of the system was 25 mM HEPES, 2.5 mM MgCl2, pH 7.4. Using DMAPP and IPP as reaction substrates, the changes of UV at 360 nm were monitored in real-time in phosphate lyase system. ORIGIN 8.0 software was used to plot and fit.
# [5] = test system: PvGGPPS (geranylgeranyl pyrophosphate synthase from Plasmodium); assay: In vitro PvGGPPS enzymatic activity assay; type: biochemical; settings: GPP and IPP substrates
# Description: as §1, with “PvGGPPs” for “HsFPPs”, “GPP” for “DMAPP”, “a” for “the changes of UV at”, “continuous spectrophotometric detection was performed” for “were monitored”, “a” for “real-time in”
# [6] = test system: Plasmodium falciparum 3D7; assay: Test of plasmodium activity (SYBR-GREEN1); type: cell-based; settings: infected erythrocytes, 72 hours; read-out: Malaria (IC50/μM)
# Description: Plasmodium falciparum 3D7 was cultured with […] medium mixed with 10% human O-type blood serum and 25 mM HEPES. The cultivation process was maintained in a carbon dioxide incubator under 5% carbon dioxide. In vitro drug testing experiments were performed on a 96-well plate. The test drug was dissolved in PBS and pre-diluted with complete medium. Infected erythrocytes were cultured in triplicate for 72 hours in 3-fold serial dilutions of drug. Then an equal amount of SYBR-GREEN1 was added to each well. The detection was then performed at 485 nm for excitation light and 538 nm for emitted light. […] ORIGIN 8.0 software was used to plot and fit.
# MDA-MB-231 cells = assay: MDA-MB-231 proliferation MTT test; type: cell-based, human; settings: 72 hours
# Description: • Drug dissolution: […] The prepared bisphosphonate stock solution was diluted with DMEM complete medium. The maximum concentration was 1 mM. The dilution was performed serially in a ratio of 1:3.2 with a total of 11 concentration gradients; a. MDA-MB-231 cells were digested the day before. Centrifugation was performed at 1000 rmp for 3 min. The cells were counted. The cells were seeded into a 96-well plate at 3000 cells/well in a volume of 100 μl per well and cultured for 14-16 h. It should be noted that the cell count should be accurate, and the amount of cells seeded per well should be consistent. The cell suspension can be gently shaken in the intermittence of plating, or a row of cells were plated and the cell suspension was pipetted gently with a pipette. The speed of pipetting into the 96-well plate with a pipette should not be too fast or too slow, in order to avoid uneven distribution of cells in the plate, affecting the experiments; the wells at the fringe of the 96-well plate will evaporate slightly faster and the concentration of the solution will change slightly faster. Under normal situation, the central 60 wells should be selected for stimulation. Also, the pipetted liquid should be prevented from creating bubbles. b. After the cells had adhered, the liquid in the 96-well plate was pipetted out and discarded. […] c. 72 hours after the action of drug, the prepared MTT solution (immediately before use, a certain amount of MTT powder was weighed and dissolved in PBS at 5 mg/ml, under dark, filter with 0.22 filter membrane) was added directly to each well with 20 μl per well and continued to culture for 4 hours; d. The filter paper (which can be replaced by an absorbent paper) was laid, and the plate was inverted gently (be careful to prevent the crystal in the well from dropping). After the liquid in the wells was removed, 150 μl of DMSO was added to dissolve the crystals, and the mixture was shaken thoroughly with a shaker for a period of time just to dissolve the crystals. The absorbance (OD value) of each well was measured at 570 nm with ELIASA. The mean value of blank control was calculated as OD Blank. OD value for each well=OD measured-OD Blank. ODNT mean value was calculated. […] Mean and standard error were then calculated. The mean and standard error of each group of drug concentration (uM) and corresponding drug inhibition rate were fitted by Graph Prism software to obtain the IC50 of the drug.
smiles,measurement,setting,value
"CC(C)Cn1cnc2c(N)nc3ccccc3c21 [imiquimod, reference compound]","antibody titers vs PBS control, adjuvant used alone",[1],significant high titers
"CCCCCCOc1cccc(CC(P(=O)(O)O)P(=O)(O)O)c1 [TH-Z144, (2-(3-(hexyloxy)phenyl)ethane-1,1-diyl)bisphosphonic acid]",IC50 (inhibition of GGPPS),[2],effectively inhibit the activity of GGPPS
same,IC50,[2]; read-out: IC50 (inhibition of GGPPS),2.76 µM
same,IgM and IgG antibody titers vs PBS control,[3],significantly higher titers
CCCOc1ccc2c(c1)ncn2CC(O)(P(=O)(O)O)P(=O)(O)O [TH-Z149],IC50,"[4]; Example 15 table, read-out: HsFPPS (IC50/μM)",0.27 µM
same,IC50,"[4]; TH-Z80 series, DMAPP and IPP substrates, pH 7.4, read-out: IC50 for inhibition of FPPS",0.27 µM
same,IC50,[5],0.47 µM
same,IC50,[6],0.92 µM
same,IC50,MDA-MB-231 cells,36.1 µM
